Source: the supplement of paper PMC10307832

Key:
Assay in all cases: relative viability (nuclei count vs DMSO), 5 days (fraction); higher = more cells survive
[1] = compound: CCC1=CN=CN=C1N2CCN(CC2)CC3=NC4=C(N3)C=C(C=C4)C(F)(F)F + Nc1nc2[nH]cc(CCc3ccc(C(=O)N[C@@H](CCC(=O)O)C(=O)O)cc3)c2c(=O)[nH]1 [Pemetrexed] (partner 0.2 µM)
Outline: (§1)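 Each reported value is a median over duplicate plates. It expresses relative viability: treated-well nuclei count divided by vehicle-well nuclei count. Lung cancer cell lines in 1536-well plates were dosed by pin tool a day after seeding, alone with one drug or with a fixed anchor-drug dose plus five library-drug doses (not always all listed) in √10 steps, and nuclei were counted after 5 days.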

[2] = compound: CCC1=CN=CN=C1N2CCN(CC2)CC3=NC4=C(N3)C=C(C=C4)C(F)(F)F + Cc1nc(Nc2ncc(C(=O)Nc3c(C)cccc3Cl)s2)cc(N2CCN(CCO)CC2)n1 [Dasatinib] (partner 0.075 µM)
Outline: as §1

[3] = compound: CCn1c(-c2nonc2N)nc2cnc(Oc3cccc(NC(=O)c4ccc(OCCN5CCOCC5)cc4)c3)cc21 + C[C@]1(O)C[C@@H](c2nc(-c3ccc4ccc(-c5ccccc5)nc4c3)c3c(N)nccn32)C1 [Linsitinib] (partner 1 µM)
Outline: as §1

Mirin + Lapatinib = compound: N=C1NC(=O)/C(=C/c2ccc(O)cc2)S1 [Mirin] + CS(=O)(=O)CCNCc1ccc(-c2ccc3ncnc(Nc4ccc(OCc5cccc(F)c5)c(Cl)c4)c3c2)o1 [Lapatinib] (partner 2 µM)
Outline: as §1

Q: UMC-11 was tested. Which relative viability ([1]; first compound 0.04 µM) did it give?
A: Its relative viability is 0.772.

Q: What about the relative viability ([1]; first compound 0.1265 µM) of the same cell line?
A: The relative viability was 0.767.

Q: What about the relative viability ([1]; first compound 0.4 µM) of the same cell line?
A: Its relative viability is 0.83.

Q: What about the relative viability ([1]; first compound 1.265 µM) of the same cell line?
A: Its relative viability is 0.761.

Q: What about the relative viability ([1]; first compound 4 µM) of the same cell line?
A: Its relative viability is 0.724.

Q: And the relative viability ([2]; first compound 0.04 µM)?
A: Its relative viability is 0.531.

Q: What about the relative viability ([2]; first compound 0.1265 µM) of the same cell line?
A: Its relative viability is 0.436.

Q: And the relative viability ([2]; first compound 0.4 µM)?
A: The relative viability was 0.42.

Q: And the relative viability ([2]; first compound 1.265 µM)?
A: Its relative viability is 0.398.

Q: What about the relative viability ([2]; first compound 4 µM) of the same cell line?
A: Its relative viability is 0.492.

Q: And the relative viability ([3]; first compound 0.04 µM)?
A: The relative viability was 1.14.

Q: What about the relative viability ([3]; first compound 0.1265 µM) of the same cell line?
A: Its relative viability is 1.07.

Q: And the relative viability ([3]; first compound 0.4 µM)?
A: The relative viability was 0.915.

Q: What about the relative viability ([3]; first compound 1.265 µM) of the same cell line?
A: Its relative viability is 0.322.

Q: And the relative viability ([3]; first compound 4 µM)?
A: The relative viability was 0.337.

Q: And the relative viability (Mirin + Lapatinib; first compound 0.25 µM)?
A: The relative viability was 0.958.

Q: And the relative viability (Mirin + Lapatinib; first compound 2.5 µM)?
A: The relative viability was 0.985.

Q: What about the relative viability (Mirin + Lapatinib; first compound 7.906 µM) of the same cell line?
A: Its relative viability is 0.548.

Q: And the relative viability (Mirin + Lapatinib; first compound 25 µM)?
A: The relative viability was 0.684.
